# Measurements taken from ChEMBL document CHEMBL1146889, “Homo-cysteinyl peptide inhibitors of the L1 metallo-beta-lactamase, and SAR as determined by combinatorial library synthesis” (Bioorg Med Chem Lett, 2006).
# What was measured:
# [1] = target: Beta-lactamase L1 (Stenotrophomonas maltophilia) (UniProt P52700); experiment: Inhibition of Stenotrophomonas maltophilia L1 metallo beta lactamase at 200 uM
# Beta-lactamase L1 = Beta-lactamase L1 (Stenotrophomonas maltophilia, UniProt P52700); experiment: Inhibition of Stenotrophomonas maltophilia L1 metallo beta lactamase
# Sequence of Beta-lactamase L1 (P52700 whole entry): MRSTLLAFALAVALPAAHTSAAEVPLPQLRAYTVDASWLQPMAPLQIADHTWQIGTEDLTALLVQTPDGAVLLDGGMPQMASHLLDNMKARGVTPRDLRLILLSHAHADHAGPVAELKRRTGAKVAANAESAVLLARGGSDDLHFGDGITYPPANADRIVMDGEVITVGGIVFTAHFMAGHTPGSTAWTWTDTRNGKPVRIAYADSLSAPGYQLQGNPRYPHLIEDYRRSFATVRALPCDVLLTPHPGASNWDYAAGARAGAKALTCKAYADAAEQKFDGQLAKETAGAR
# Sequence of Beta-lactamase L1 (Stenotrophomonas maltophilia) (P52700 34-290 limits assumed): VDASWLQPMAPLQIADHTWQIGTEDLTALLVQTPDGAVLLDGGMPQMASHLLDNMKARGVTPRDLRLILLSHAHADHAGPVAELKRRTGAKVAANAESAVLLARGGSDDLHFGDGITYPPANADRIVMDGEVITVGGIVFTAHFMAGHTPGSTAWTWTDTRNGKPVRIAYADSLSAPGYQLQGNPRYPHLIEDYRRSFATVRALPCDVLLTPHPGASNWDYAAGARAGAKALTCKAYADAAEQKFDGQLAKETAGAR
inhibition [1],Ki (Beta-lactamase L1),SMILES
81%,520 nM,C[Si](C)(C)CCC(=O)NC(CCS)C(=O)N[C@H](Cc1ccccc1)C(=O)O (some centres not stated)
41%,–,O=C(NC(CCS)C(=O)N[C@H](Cc1ccccc1)C(=O)O)c1ccc2cc[nH]c2c1 (some centres not stated)
41%,–,O=C(NC(CCS)C(=O)N[C@H](Cc1ccccc1)C(=O)O)c1ccco1 (some centres not stated)
61%,–,C=C(C(=O)NC(CCS)C(=O)N[C@H](Cc1ccccc1)C(=O)O)C(F)(F)F (some centres not stated)
41%,–,CC(=O)CCC(=O)NC(CCS)C(=O)N[C@H](Cc1ccccc1)C(=O)O (some centres not stated)
61%,–,C=C(C)C(=O)NC(CCS)C(=O)N[C@H](Cc1ccccc1)C(=O)O (some centres not stated)
–,26 nM,NC(=O)[C@@H](Cc1ccccc1)NC(=O)C(CCS)NC(=O)c1cccc(C(=O)O)n1 (some centres not stated)
61%,–,O=C(Cc1c[nH]c2ccccc12)NC(CCS)C(=O)N[C@H](Cc1ccccc1)C(=O)O (some centres not stated)
61%,–,O=C(Cc1ccccc1)NC(CCS)C(=O)N[C@H](Cc1ccccc1)C(=O)O (some centres not stated)
41%,–,O=C(NC(CCS)C(=O)N[C@H](Cc1ccccc1)C(=O)O)c1ccccc1O (some centres not stated)
81%,200 nM,Cc1cc(C(=O)NC(CCS)C(=O)N[C@H](Cc2ccccc2)C(=O)O)cc(C)c1OCc1ccccc1 (some centres not stated)
–,880 nM,CCCCc1ccc(C(=O)NC(CS)C(=O)N[C@H](Cc2ccccc2)C(=O)O)nc1 (some centres not stated)
61%,–,O=C(O)c1ccc(C(=O)NC(CCS)C(=O)N[C@H](Cc2ccccc2)C(=O)O)cc1 (some centres not stated)
41%,–,O=C(Cc1c[nH]cn1)NC(CCS)C(=O)N[C@H](Cc1ccccc1)C(=O)O (some centres not stated)
41%,–,O=C(NC(CCS)C(=O)N[C@H](Cc1ccccc1)C(=O)O)c1cc[nH]c1 (some centres not stated)
21%,–,O=C(/C=C\c1ccco1)NC(CCS)C(=O)N[C@H](Cc1ccccc1)C(=O)O (some centres not stated)
41%,–,C=CCCC(=O)NC(CCS)C(=O)N[C@H](Cc1ccccc1)C(=O)O (some centres not stated)
61%,–,O=C(NC(CCS)C(=O)N[C@H](Cc1ccccc1)C(=O)O)c1ccc([N+](=O)[O-])c(O)c1 (some centres not stated)
41%,–,O=C(Cc1cccs1)NC(CCS)C(=O)N[C@H](Cc1ccccc1)C(=O)O (some centres not stated)

inhibition [1],Ki (Beta-lactamase L1),SMILES
81%,–,O=C(O)c1cc(O)cc(C(=O)NC(CCS)C(=O)N[C@H](Cc2ccccc2)C(=O)O)c1 (stereo in doubt; 49) [listing 1 of 2 here]
61%,–,O=C(COc1ccccc1)NC(CCS)C(=O)N[C@H](Cc1ccccc1)C(=O)O (some centres not stated)
41%,–,O=C(NC(CCS)C(=O)N[C@H](Cc1ccccc1)C(=O)O)c1cccs1 (some centres not stated)
21%,–,CC(C)CC(=O)NC(CCS)C(=O)N[C@H](Cc1ccccc1)C(=O)O (some centres not stated)
81%,–,CCCCc1ccc(C(=O)NC(CCS)C(=O)N[C@H](Cc2ccccc2)C(=O)O)nc1 (stereo in doubt; 91) [listing 2 of 2 here]
–,230 nM,CCCCc1ccc(C(=O)NC(CCS)C(=O)N[C@H](Cc2ccccc2)C(=O)O)nc1 (stereo in doubt; 6)
41%,–,O=C(CO)NC(CCS)C(=O)N[C@H](Cc1ccccc1)C(=O)O (some centres not stated)
41%,–,O=C(NC(CCS)C(=O)N[C@H](Cc1ccccc1)C(=O)O)c1ccccc1C(=O)c1ccccc1 (some centres not stated)
–,120 nM,O=C(O)c1cccc(C(=O)NC(CCS)C(=O)N[C@H](Cc2ccccc2)C(=O)O)n1 (stereo in doubt; 94)
–,130 nM,"NC(=O)[C@@H](Cc1ccccc1)NC(=O)C(CCS)NC(=O)c1cc(O)cc(C(=O)O)c1 (single isomer, unassigned)"
41%,–,CCCCCCCC(=O)NC(CCS)C(=O)N[C@H](Cc1ccccc1)C(=O)O (some centres not stated)
61%,–,Cc1ccc(C(=O)NC(CCS)C(=O)N[C@H](Cc2ccccc2)C(=O)O)c(O)n1 (some centres not stated)
61%,–,Cc1ccccc1C(=O)NC(CCS)C(=O)N[C@H](Cc1ccccc1)C(=O)O (some centres not stated)
41%,–,NC(=O)CCC(=O)NC(CCS)C(=O)N[C@H](Cc1ccccc1)C(=O)O (some centres not stated)
41%,–,O=C(CC(c1ccccc1)c1ccccc1)NC(CCS)C(=O)N[C@H](Cc1ccccc1)C(=O)O (some centres not stated)
61%,–,O=C(CC12CC3CC(CC(C3)C1)C2)NC(CCS)C(=O)N[C@H](Cc1ccccc1)C(=O)O (some centres not stated)
61%,–,O=C(Cc1cccc2ccccc12)NC(CCS)C(=O)N[C@H](Cc1ccccc1)C(=O)O (some centres not stated)
41%,–,O=C(NC(CCS)C(=O)N[C@H](Cc1ccccc1)C(=O)O)c1ccsc1 (some centres not stated)
61%,–,O=C(N[C@H](Cc1ccccc1)C(=O)O)C(CCS)NC(=O)C(c1ccccc1)c1ccccc1 (some centres not stated)

# More lines, now with the values behind:
SMILES,inhibition [1],Ki (Beta-lactamase L1)
O=C(NC(CCS)C(=O)N[C@H](Cc1ccccc1)C(=O)O)c1ccc2[nH]ccc2c1 (some centres not stated),61%,–
O=C(O)c1cccc(C(=O)NC(CCS)C(=O)N[C@H](Cc2ccccc2)C(=O)O)n1 (stereo in doubt; 84) [listing 1 of 2 here],81%,–
O=C(Cc1ccsc1)NC(CCS)C(=O)N[C@H](Cc1ccccc1)C(=O)O (some centres not stated),41%,–
O=C(Cc1cc([N+](=O)[O-])ccc1Cl)NC(CCS)C(=O)N[C@H](Cc1ccccc1)C(=O)O (some centres not stated),81%,780 nM
O=C(Cc1ccc(Br)cc1)NC(CS)C(=O)N[C@H](Cc1ccccc1)C(=O)O (some centres not stated),–,3670 nM
Cc1nocc1C(=O)NC(CCS)C(=O)N[C@H](Cc1ccccc1)C(=O)O (some centres not stated),61%,–
CCCCc1ccc(C(=O)NC(CCS)C(=O)N[C@H](Cc2ccccc2)C(=O)O)nc1 (stereo in doubt; 91) [listing 1 of 2 here],–,230 nM
O=C(NC(CCS)C(=O)N[C@H](Cc1ccccc1)C(=O)O)c1cccc(O)c1 (some centres not stated),41%,–
Cc1cc(C(=O)NC(CCS)C(=O)N[C@H](Cc2ccccc2)C(=O)O)cc(C)c1O (some centres not stated),81%,540 nM
O=C(NC(CCS)C(=O)N[C@H](Cc1ccccc1)C(=O)O)c1cc2ccccc2s1 (some centres not stated),61%,–
O=C(CCc1cccnc1)NC(CCS)C(=O)N[C@H](Cc1ccccc1)C(=O)O (some centres not stated),41%,–
O=C(NC(CCS)C(=O)N[C@H](Cc1ccccc1)C(=O)O)C1CCCCC1 (some centres not stated),61%,–
O=C(NC(CCS)C(=O)N[C@H](Cc1ccccc1)C(=O)O)C1CCCC1 (some centres not stated),61%,–
O=C(NC(CCS)C(=O)N[C@H](Cc1ccccc1)C(=O)O)c1c[nH]c(=O)c(Cl)c1 (some centres not stated),–,260 nM
O=C(N[C@H](Cc1ccccc1)C(=O)O)C(CCS)NC(=O)C12CC3CC(CC(C3)C1)C2 (some centres not stated),61%,–
CC(=O)Nc1cccc(C(=O)NC(CCS)C(=O)N[C@H](Cc2ccccc2)C(=O)O)c1 (some centres not stated),61%,–
O=C(O)CCCCC(=O)NC(CCS)C(=O)N[C@H](Cc1ccccc1)C(=O)O (some centres not stated),41%,–
Cc1cn(C)c(CC(=O)NC(CCS)C(=O)N[C@H](Cc2ccccc2)C(=O)O)c1C(=O)O (some centres not stated),41%,–
CC(=O)Oc1ccccc1C(=O)NC(CCS)C(=O)N[C@H](Cc1ccccc1)C(=O)O (some centres not stated),41%,–
O=C(O)c1cccnc1C(=O)NC(CCS)C(=O)N[C@H](Cc1ccccc1)C(=O)O (some centres not stated),41%,–
Nc1nc(CC(=O)NC(CCS)C(=O)N[C@H](Cc2ccccc2)C(=O)O)cs1 (some centres not stated),41%,–
O=C(NC(CCS)C(=O)N[C@H](Cc1ccccc1)C(=O)O)c1ccc([N+](=O)[O-])cc1 (some centres not stated),41%,–
CCCC(=O)NC(CCS)C(=O)N[C@H](Cc1ccccc1)C(=O)O (some centres not stated),41%,–
O=C(NC(CCS)C(=O)N[C@H](Cc1ccccc1)C(=O)O)c1ccoc1 (some centres not stated),41%,–
O=C(CCC1CCCCC1)NC(CCS)C(=O)N[C@H](Cc1ccccc1)C(=O)O (some centres not stated),81%,780 nM
C=Cc1ccc(C(=O)NC(CCS)C(=O)N[C@H](Cc2ccccc2)C(=O)O)cc1 (some centres not stated),61%,–

SMILES,inhibition [1],Ki (Beta-lactamase L1)
O=C(O)CCC(=O)NC(CCS)C(=O)N[C@H](Cc1ccccc1)C(=O)O (some centres not stated),41%,–
O=C(Cc1cccc([N+](=O)[O-])c1)NC(CCS)C(=O)N[C@H](Cc1ccccc1)C(=O)O (some centres not stated),81%,1030 nM
CO/N=C(/C(=O)NC(CCS)C(=O)N[C@H](Cc1ccccc1)C(=O)O)c1csc(NC=O)n1 (some centres not stated),41%,–
O=C(NC(CCS)C(=O)N[C@H](Cc1ccccc1)C(=O)O)c1ccno1 (some centres not stated),61%,–
CC(C)C(=O)NC(CCS)C(=O)N[C@H](Cc1ccccc1)C(=O)O (some centres not stated),41%,–
O=C(NC(CCS)C(=O)N[C@H](Cc1ccccc1)C(=O)O)c1cc2cccc([N+](=O)[O-])c2[nH]1 (some centres not stated),81%,150 nM
O=C(NC(CCS)C(=O)N[C@H](Cc1ccccc1)C(=O)O)c1cnccn1 (some centres not stated),61%,–
O=C(NC(CCS)C(=O)N[C@H](Cc1ccccc1)C(=O)O)c1cccnc1 (some centres not stated),61%,–
NC(=O)[C@@H](Cc1ccccc1)NC(=O)C(CCS)NC(=O)c1cc(O)cc(C(=O)O)c1 (stereo in doubt; 95),–,5.8 nM
O=C(NC(CCS)C(=O)N[C@H](Cc1ccccc1)C(=O)O)c1cnc(O)c(Cl)c1 (some centres not stated),81%,–
O=C(NC(CCS)C(=O)N[C@H](Cc1ccccc1)C(=O)O)C1CCC1 (some centres not stated),0%,–
O=C(NC(CCS)C(=O)N[C@H](Cc1ccccc1)C(=O)O)c1cccnc1S (some centres not stated),61%,–
Cn1cccc1C(=O)NC(CCS)C(=O)N[C@H](Cc1ccccc1)C(=O)O (some centres not stated),41%,–
O=C(CC(O)C(=O)O)NC(CCS)C(=O)N[C@H](Cc1ccccc1)C(=O)O (some centres not stated),41%,–
"NC(=O)[C@@H](Cc1ccccc1)NC(=O)C(CCS)NC(=O)c1cc(O)cc(C(=O)O)c1 (single isomer, unassigned; diastereomer 1)",–,2.1 nM
Cc1ccc(C(=O)NC(CCS)C(=O)N[C@H](Cc2ccccc2)C(=O)O)c(Cl)n1 (some centres not stated),61%,–
Cc1occc1C(=O)NC(CCS)C(=O)N[C@H](Cc1ccccc1)C(=O)O (some centres not stated),41%,–
O=C(O)c1cccc(C(=O)NC(CCS)C(=O)N[C@H](Cc2ccccc2)C(=O)O)n1 (stereo in doubt; 84) [listing 2 of 2 here],–,12 nM
O=C(/C=C\c1c[nH]c2ccccc12)NC(CCS)C(=O)N[C@H](Cc1ccccc1)C(=O)O (some centres not stated),21%,–
C/C=C\C=C\C(=O)NC(CCS)C(=O)N[C@H](Cc1ccccc1)C(=O)O (some centres not stated),41%,–
O=C(NC(CCS)C(=O)N[C@H](Cc1ccccc1)C(=O)O)c1ccccc1[N+](=O)[O-] (some centres not stated),61%,–
O=C(O)c1cc(O)cc(C(=O)NC(CCS)C(=O)N[C@H](Cc2ccccc2)C(=O)O)c1 (stereo in doubt; 96),–,140 nM
Cc1ccc(C(=O)NC(CCS)C(=O)N[C@H](Cc2ccccc2)C(=O)O)s1 (some centres not stated),41%,–
O=C(NC(CCS)C(=O)N[C@H](Cc1ccccc1)C(=O)O)c1ccccc1-c1ccccc1 (some centres not stated),41%,–
O=C(O)c1cc(O)cc(C(=O)NC(CCS)C(=O)N[C@H](Cc2ccccc2)C(=O)O)c1 (stereo in doubt; 49) [listing 2 of 2 here],–,140 nM
Cc1ccsc1C(=O)NC(CCS)C(=O)N[C@H](Cc1ccccc1)C(=O)O (some centres not stated),61%,–
